Experiments:
[1] = system: Nrf2 pathway; conditions: ref [34]; cited from earlier work
Description: PANa triggers the buildup of reactive oxygen species (ROS) within cells, resulting in oxidative stress and subsequent cellular injury. Antioxidant enzymes are essential for alleviating oxidative stress.

[2] = system: FASN and ACC1; conditions: ref [39]; cited from earlier work
Description: Lipid metabolism, including lipolysis, lipogenesis, and lipid transport, determines the lipid levels in the body. FASN and ACC are two significant lipid synthetases that play a key role in lipid accumulation. PANa primarily influences hepatic lipogenesis through the modulation of FASN and ACC1 expression. […] CPT1 and ATGL are closely linked to lipolysis and are crucial for regulating lipid levels. ...

[3] = system: HepG2 cells; experiment: CCK-8 proliferation of HepG2 with peptide alone; assay type: cell-based; conditions: concentrations below 200 µM, 24 h, CCK-8, n = 3
Description: HepG2 cells were cultured in DMEM supplemented with penicillin at a concentration of 100 U/mL, streptomycin at 100 μg/mL, and fetal bovine serum at a volume ratio of 10% under conditions of 37 °C and 5% CO2. A total of 2 ×10^4 cells per well were seeded into a 96-well plate for overnight culture. The upper layer of medium was carefully aspirated, and 200 μL of different concentrations of oligopeptide solution (50 μM, 100 μM, 200 μM) prepared with cell complete medium was added to each well. Twenty-four hours later, the proliferation rate of the cells was measured according to the instructions of the CCK-8 kit, and the appropriate concentration of oligopeptide was screened out.

[4] = system: HepG2 cells; experiment: Cell viability of PANa-induced HepG2 (CCK-8); assay type: cell-based; conditions: 100 μM peptide 4 h, then 350 µM PANa 24 h, **** p < 0.0001 vs PANa group
Description: A total of 2 × 10^4 cells/well were inoculated in 96-well plates for culture at 37 °C and 5% CO2. Following this period, the cells received treatment with 200 μL medium containing 100 μM LR-7, KA-8, or PG-7 for 4 h before adding 350 μM PANa to each well. After incubation for an additional 24 h, the cell proliferation rates were assessed using the CCK-8 assay protocols.

[5] = system: catalase (CAT); experiment: Catalase (CAT) activity in HepG2; assay type: cell-based; conditions: 100 μM peptide 4 h, then 350 µM PANa 24 h, HepG2
Description: (§1) After incubation, cells were treated with 100 μM of peptides for 4 h. After removing the media, PANa was added for 24 h of incubation. The levels of catalase (CAT), superoxide dismutase (SOD), glutathione peroxidase (GSH-Px), malondialdehyde (MDA), triacylglycerol (TG), total cholesterol (TCHO), low-density lipoprotein cholesterol (LDL-C), and high-density lipoprotein cholesterol (HDL-C) in the supernatant were determined according to the kit instructions.

[6] = system: superoxide dismutase (SOD); experiment: Superoxide dismutase (SOD) activity in HepG2; assay type: cell-based; conditions: 100 μM peptide 4 h, then 350 µM PANa 24 h
Description: as §1

[7] = system: glutathione peroxidase (GSH-Px); experiment: Glutathione peroxidase (GSH-Px) activity in HepG2; assay type: cell-based; conditions: 100 μM peptide 4 h, then 350 µM PANa 24 h, HepG2
Description: as §1

[8] = system: malondialdehyde (MDA); experiment: Malondialdehyde (MDA) level in HepG2; assay type: cell-based; conditions: 100 μM peptide 4 h, then 350 µM PANa 24 h, HepG2
Description: as §1

[9] = system: Nrf2; experiment: Western blot Nrf2; assay type: cell-based; conditions: 100 μM peptide 4 h, then 350 µM PANa 24 h, HepG2, Western blot
Description: (§2) After treatment, cells were washed with pre-chilled PBS and lysed with ice-cold lysis buffer for 30 min. The supernatant was collected after centrifugation at 12,000× g for 10 min and stored at −80 °C. Protein concentration was determined using a BCA protein assay kit. Equal amounts of protein (20–40 µg) were subjected to 10% sodium dodecyl sulfate-polyacrylamide gel electrophoresis (SDS-PAGE) and transferred to PVDF membranes (Polyvinylidene Fluoride, Merck, Darmstadt, Germany). Non-specific binding sites were blocked with 5% bovine serum albumin (BSA) solution at room temperature for 1 h, followed by incubation with the primary antibody at 4 °C overnight. After washing with TBST (3 times, 10 min/time), the membrane was incubated with the secondary antibody at room temperature for 1 h. Following further washing with TBST (3 times, 10 min/time), antibody signals were detected using a Western blot development system. The dilution ratios for the internal reference protein, vascular endothelial injury-related proteins, and oxidative stress-related pathway proteins were prepared according to the manufacturer’s instructions.

[10] = system: HO-1; experiment: Western blot HO-1; assay type: cell-based; conditions: 100 μM peptide 4 h, then 350 µM PANa 24 h, HepG2, Western blot
Description: as §2

[11] = system: NQO1; experiment: Western blot NQO1; assay type: cell-based; conditions: 100 μM peptide 4 h, then 350 µM PANa 24 h, HepG2, Western blot
Description: as §2

[12] = system: triacylglycerol (TG); experiment: Triacylglycerol (TG) level in HepG2; assay type: cell-based; conditions: 100 μM peptide 4 h, then 350 µM PANa 24 h, HepG2
Description: as §1

[13] = system: total cholesterol (TCHO); experiment: Total cholesterol (TCHO) level in HepG2; assay type: cell-based; conditions: 100 μM peptide 4 h, then 350 µM PANa 24 h, HepG2
Description: as §1

[14] = system: low-density lipoprotein cholesterol (LDL-C); experiment: LDL-C level in HepG2; assay type: cell-based; conditions: 100 μM peptide 4 h, then 350 µM PANa 24 h, HepG2
Description: as §1

[15] = system: high-density lipoprotein cholesterol (HDL-C); experiment: HDL-C level in HepG2; assay type: cell-based; conditions: 100 μM peptide 4 h, then 350 µM PANa 24 h, HepG2
Description: as §1

[16] = system: fatty acid synthase (FASN); experiment: Western blot FASN; assay type: cell-based; conditions: 100 μM peptide 4 h, then 350 µM PANa 24 h, HepG2, Western blot
Description: as §2

[17] = system: phosphorylated ACC1 (p-ACC1); experiment: Western blot p-ACC1; assay type: cell-based; conditions: 100 μM peptide 4 h, then 350 µM PANa 24 h, HepG2, Western blot
Description: as §2

[18] = system: proteins associated with lipid metabolism; experiment: Western blot, proteins associated with lipid metabolism overall; assay type: cell-based; conditions: 100 μM peptide 4 h, then 350 µM PANa 24 h, HepG2, Western blot
Description: as §2

[19] = system: pancreatic lipase; experiment: Pancreatic lipase activity inhibition; assay type: biochemical; conditions: compared with orlistat (positive control); 4-nitrophenyl palmitate substrate, lipase 1.2 mg/mL, peptide 100 μM, Tris-HCl pH 8.0, 37 °C, absorbance 405 nm, three parallel wells
Description: A working substrate solution consisting of 4-nitrophenyl palmitate dissolved in sodium acetate solution (containing 1% Triton-X 100, 100 mL, 5 mM, pH 5.0) was prepared. Enzyme powder was dissolved in Tris-HCl buffer (pH 8.0, 37 °C). This mixture was incubated at 4 °C for 2 h before centrifugation at 5000 r/min for 5 min, yielding the supernatant used to prepare a pancreatic lipase solution of 1.2 mg/mL. Orlistat at a concentration of 1 mg/mL in Tris-HCl buffer (pH 8.0; 37 °C) was prepared alongside DMSO to reach a concentration of 350 μg/mL peptide solution. The peptide solution of 100 μM was prepared with Tris-HCl buffer (pH = 8.0, 37 °C). The absorbance was measured at 405 nm, and the inhibition rate was measured in parallel with three holes due to the methodology of Franco et al..

[20] = system: HUVECs; conditions: earlier work, ref [21]; cited from earlier work
Description: Harpadon nehereus, a nutrient-rich marine species indigenous to the Indo-Pacific region, remains underexploited despite its significant collagen content (18–22% wet weight). Harpadon nehereus serves as an economical source that is rich in protein and trace elements. Its proteins and derived peptides offer numerous health benefits including immune enhancement, blood pressure reduction, cardiovascular protection, and inflammation mitigation. In prior research, we successfully isolated three novel peptides LALFVPR (LR-7), KLHDEEVA (KA-8), and PSRILYG (PG-7) from the enzymatic hydrol ... || Studies have confirmed that oxidative stress and lipid metabolism disorders are significant factors in the occurrence and development of hyperlipidemia Dietary intervention is a crucial auxiliary strategy for the management of hyperlipidemia. Collagen peptides have been extensively used as a nutritional intervention in the treatment of various diseases due to their notable antioxidant, anti-inflammatory, and hypolipidemic activities. […] Anoth ...

Compound	hepatic steatosis, oxidative stress, inflammatory cell infiltration and fibrosis via Nrf2 pathway [1]	expression levels of FASN and ACC1 / lipid accumulation [2]	effect on apoptosis of HepG2 cells [3]	cell viability of PANa-exposed HepG2 [4]	CAT activity, reversal of PANa-induced reduction [5]	SOD activity, reversal of PANa-induced reduction [6]	GSH-Px activity, reversal of PANa-induced reduction [7]	MDA level [8]	Nrf2 protein level [9]	HO-1 protein level [10]	NQO1 protein level [11]	TG, effect on PANa-induced increase [12]	TCHO, effect on PANa-induced increase [13]	LDL-C, effect on PANa-induced increase [14]	HDL-C, effect on PANa-induced decrease [15]	FASN expression vs PANa group [16]	p-ACC1 level vs PANa group [17]	abnormal expression of proteins associated with lipid metabolism by PANa (FASN, ATGL, CPT1, p-AMPKα) [18]	inhibition of pancreatic lipase activity [19]	effect on angiotensin II-induced dysfunctions within HUVECs [20]
COc1ccc([C@@H]2CC(=O)c3c(O)cc(O)cc3O2)cc1O [hesperetin]	reduce hepatic steatosis, alleviate oxidative stress, decrease inflammatory cell infiltration, and mitigate fibrosis through activation of the Nrf2 pathway																			
Oc1ccc2c(c1)OCO2 [sesamol (SEM), sesamol]		influence lipid accumulation by decreasing the expression levels of FASN and ACC1																		
KLHDEEVA [KA-8, peptide from Harpadon nehereus bone collagen enzymatic hydrolysates]			no effect on the apoptosis of HepG2 cells	notably enhanced the cell viability	effectively reversed the reduction	effectively reversed the reduction	effectively reversed the reduction	significantly decreased the MDA levels	significant increases in the levels	significant increases in the levels	significant increases in the levels	notably reversed the PANa-induced increases	notably reversed the PANa-induced increases	notably reversed the PANa-induced increases	notably reversed	FASN expression decreased	p-ACC1 levels increased significantly	significantly reversed	comparable results to orlistat	
PSRILYG [PG-7, peptide from Harpadon nehereus bone collagen enzymatic hydrolysates]			no effect on the apoptosis of HepG2 cells	notably enhanced the cell viability	effectively reversed the reduction	effectively reversed the reduction	effectively reversed the reduction	significantly decreased the MDA levels	significant increases in the levels	significant increases in the levels	significant increases in the levels	notably reversed the PANa-induced increases	notably reversed the PANa-induced increases	notably reversed the PANa-induced increases	notably reversed	FASN expression decreased	p-ACC1 levels increased significantly	significantly reversed	less effective than orlistat	improve angiotensin II-induced dysfunctions within HUVECs

Source: publication PMC11943913, “Peptides from Harpadon nehereus Bone Ameliorate Sodium Palmitate-Induced HepG2 Lipotoxicity by Regulating Oxidative Stress and Lipid Metabolism” (Marine Drugs, 2025)
